Measurements: patent EP4467141A1, “PYRAZOLO-QUINOLINES AS SELECTIVE INHIBITORS OF GENOTOXIC STRESS-INDUCED IKK/NF- KB PATHWAYS FOR CANCER THERAPY” (Max-Delbrück-Centrum für Molekulare Medizin in der …, priority 2023, dated 2024)

How the values were obtained:
Experiment in all cases: Kinase panel study
Assay type in all cases: biochemical
Conditions in all cases: read-out: Percentage of inhibition; for inhibition at 1 µM: 1000nM; for inhibition at 10 µM: 10000nM
MAPKAPK5 (PRAK) = biological target: T1, MAPKAPK5 (PRAK) (Homo sapiens, UniProt Q8IW41)
T1 construct: purchased Thermo Fisher Scientific
T1 sequence (Q8IW41 1-473): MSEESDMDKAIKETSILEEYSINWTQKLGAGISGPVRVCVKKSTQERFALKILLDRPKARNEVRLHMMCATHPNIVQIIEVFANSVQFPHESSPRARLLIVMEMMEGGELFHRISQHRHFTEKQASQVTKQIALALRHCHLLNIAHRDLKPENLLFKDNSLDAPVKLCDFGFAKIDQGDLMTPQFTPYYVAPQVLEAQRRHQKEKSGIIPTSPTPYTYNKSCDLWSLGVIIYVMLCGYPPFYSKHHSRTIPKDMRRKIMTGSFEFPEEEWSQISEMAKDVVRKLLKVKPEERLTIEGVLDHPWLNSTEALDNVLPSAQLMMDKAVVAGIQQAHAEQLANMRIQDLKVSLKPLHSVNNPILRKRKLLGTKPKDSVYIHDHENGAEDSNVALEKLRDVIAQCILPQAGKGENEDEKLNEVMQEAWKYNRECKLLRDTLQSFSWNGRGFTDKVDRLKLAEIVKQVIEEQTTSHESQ
Method in brief: (§1)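 Kinase inhibition was determined by a contract provider in cell-free ZLyte or Adapta assays. Results are expressed as % inhibition at 10 or 1 µM.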

ROCK1 = biological target: T2, ROCK1 (Homo sapiens, UniProt Q13464)
T2 construct: purchased Thermo Fisher Scientific
Method in brief: as §1

BRSK1 (SAD1) = biological target: T3, BRSK1 (SAD1) (Homo sapiens, UniProt Q8TDC3)
T3 construct: purchased Thermo Fisher Scientific
T3 sequence (Q8TDC3 1-778): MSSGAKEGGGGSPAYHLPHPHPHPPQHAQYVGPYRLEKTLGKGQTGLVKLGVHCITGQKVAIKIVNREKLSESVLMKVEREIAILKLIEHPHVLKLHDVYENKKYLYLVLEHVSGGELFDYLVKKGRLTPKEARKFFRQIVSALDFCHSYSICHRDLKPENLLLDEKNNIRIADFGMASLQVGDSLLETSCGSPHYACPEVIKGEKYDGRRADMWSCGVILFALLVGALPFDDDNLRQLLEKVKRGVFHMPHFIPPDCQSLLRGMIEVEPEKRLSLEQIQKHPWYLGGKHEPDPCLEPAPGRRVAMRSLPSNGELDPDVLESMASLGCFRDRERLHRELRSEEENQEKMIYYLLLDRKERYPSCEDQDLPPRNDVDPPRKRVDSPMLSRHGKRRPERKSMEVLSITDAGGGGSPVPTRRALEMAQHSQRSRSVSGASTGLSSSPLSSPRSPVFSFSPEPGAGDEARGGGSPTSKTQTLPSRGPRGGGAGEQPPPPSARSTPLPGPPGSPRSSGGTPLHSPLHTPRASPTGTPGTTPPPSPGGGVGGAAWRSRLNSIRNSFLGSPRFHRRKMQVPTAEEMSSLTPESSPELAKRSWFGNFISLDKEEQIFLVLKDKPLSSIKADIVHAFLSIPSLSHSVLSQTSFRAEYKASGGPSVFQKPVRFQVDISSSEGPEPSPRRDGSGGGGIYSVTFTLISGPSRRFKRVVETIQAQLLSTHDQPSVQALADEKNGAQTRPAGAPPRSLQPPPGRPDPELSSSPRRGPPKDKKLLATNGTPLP
Method in brief: as §1

T2 sequence (Q13464 whole entry): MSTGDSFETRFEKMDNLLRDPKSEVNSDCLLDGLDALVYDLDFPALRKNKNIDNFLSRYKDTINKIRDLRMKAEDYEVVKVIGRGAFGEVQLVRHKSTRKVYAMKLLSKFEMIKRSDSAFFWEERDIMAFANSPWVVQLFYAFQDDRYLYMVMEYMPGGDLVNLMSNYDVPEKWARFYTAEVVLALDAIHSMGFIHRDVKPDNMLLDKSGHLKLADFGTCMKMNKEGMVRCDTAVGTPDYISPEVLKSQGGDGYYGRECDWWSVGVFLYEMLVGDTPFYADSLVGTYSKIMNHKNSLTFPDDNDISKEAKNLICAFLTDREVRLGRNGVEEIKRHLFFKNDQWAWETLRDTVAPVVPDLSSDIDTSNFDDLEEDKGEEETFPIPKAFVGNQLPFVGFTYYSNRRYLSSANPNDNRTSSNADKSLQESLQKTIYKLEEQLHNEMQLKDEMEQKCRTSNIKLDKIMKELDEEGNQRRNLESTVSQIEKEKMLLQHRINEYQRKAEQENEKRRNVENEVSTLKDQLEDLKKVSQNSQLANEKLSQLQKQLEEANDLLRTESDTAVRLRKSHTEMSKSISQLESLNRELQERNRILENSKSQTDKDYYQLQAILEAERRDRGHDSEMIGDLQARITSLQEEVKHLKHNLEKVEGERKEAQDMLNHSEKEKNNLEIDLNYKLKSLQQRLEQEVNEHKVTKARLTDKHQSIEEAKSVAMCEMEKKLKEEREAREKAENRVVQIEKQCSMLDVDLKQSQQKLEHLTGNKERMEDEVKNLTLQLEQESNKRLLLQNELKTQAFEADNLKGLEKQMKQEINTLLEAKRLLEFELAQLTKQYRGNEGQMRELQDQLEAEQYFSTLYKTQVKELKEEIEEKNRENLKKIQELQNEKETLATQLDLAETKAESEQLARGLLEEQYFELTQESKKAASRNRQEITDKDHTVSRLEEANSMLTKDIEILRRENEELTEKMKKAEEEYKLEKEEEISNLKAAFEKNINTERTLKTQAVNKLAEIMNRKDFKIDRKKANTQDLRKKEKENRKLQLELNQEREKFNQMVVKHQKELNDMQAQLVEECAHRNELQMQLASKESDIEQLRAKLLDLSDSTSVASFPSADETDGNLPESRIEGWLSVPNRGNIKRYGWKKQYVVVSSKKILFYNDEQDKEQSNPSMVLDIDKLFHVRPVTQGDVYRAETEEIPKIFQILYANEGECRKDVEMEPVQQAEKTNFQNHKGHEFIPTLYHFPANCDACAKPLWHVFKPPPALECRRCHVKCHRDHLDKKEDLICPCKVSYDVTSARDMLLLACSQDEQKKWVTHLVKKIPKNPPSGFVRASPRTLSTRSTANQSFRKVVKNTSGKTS

Compound | inhibition at 1 µM (MAPKAPK5 (PRAK)) | inhibition at 10 µM (MAPKAPK5 (PRAK)) | inhibition at 1 µM (ROCK1) | inhibition at 10 µM (ROCK1) | inhibition at 1 µM (BRSK1 (SAD1)) | inhibition at 10 µM (BRSK1 (SAD1))
COc1ccc2c(c1OC)c(=O)n1c3ccc(O)cc3c3ccnc2c31 [MW01, 5-Hydroxy-10,11-dimethoxy-9H-benzo[c]indolo[3,2,1-ij][1,5]naphthyridin-9-one] | 8% | 18% | 0% | 13% | 0% | 6%
COc1ccc2cc3c(N)nn(C(=O)c4cccc(N(C)C)c4)c3nc2c1 [MW05, (3-Amino-7-methoxypyrazolo[3,4-b]quinolin-1-yl)-[3-(dimethylamino)phenyl]methanone] | 7% | 7% | -4% | -5% | -1% | -6%
